According to US10385037B2, “4′-O-substituted isoindoline derivatives and compositions comprising and methods of using the same” (Celgene Corporation, priority 2007, dated 2019):

SMILES | melting point [°C]
O=C1CCC(N2C(=O)c3cccc(OCc4cc(Cl)cc(Cl)c4)c3C2=O)C(=O)N1 (stereo not drawn) [Example 7, 4-(3,5-Dichloro-benzyloxy)-2-(2,6-dioxo-piperidin-3-yl)-isoindole-1,3-dione] | 278 to 280
CC(Oc1cccc2c1C(=O)N(C1CCC(=O)NC1=O)C2=O)c1ccc2ccccc2c1 (stereo not drawn) [Example 23, 2-(2,6-Dioxo-piperidin-3-yl)-4-(1-naphthalen-2-yl-ethoxy)-isoindole-1,3-dione] | 174 to 176
O=C1CCC(N2C(=O)c3cccc(OCc4ccco4)c3C2=O)C(=O)N1 (stereo not drawn) [Example 19, 2-(2,6-Dioxo-piperidin-3-yl)-4-(furan-2-ylmethoxy)-isoindole-1,3-dione] | 184 to 186
O=C1CCC(N2C(=O)c3cccc(OCc4cccc(Br)c4)c3C2=O)C(=O)N1 (stereo not drawn) [Example 9, 4-(3-Bromo-benzyloxy)-2-(2,6-dioxo-piperidin-3-yl)-isoindole-1,3-dione] | 246 to 248
CS(=O)(=O)c1ccc(COc2cccc3c2C(=O)N(C2CCC(=O)NC2=O)C3=O)cc1 (stereo not drawn) [Example 11, 2-(2,6-Dioxo-piperidin-3-yl)-4-(4-methanesulfonyl-benzyloxy)-isoindole-1,3-dione] | 293 to 295
O=C1CCC(N2C(=O)c3cccc(OCc4ccc(Cl)cc4)c3C2=O)C(=O)N1 (stereo not drawn) [Example 5, 4-(4-Chloro-benzyloxy)-2-(2,6-dioxo-piperidin-3-yl)-isoindole-1,3-dione] | 239 to 241
O=C1CCC(N2C(=O)c3cccc(OCc4cc5ccccc5o4)c3C2=O)C(=O)N1 (stereo not drawn) [Example 17, 4-(Benzofuran-2-ylmethoxy)-2-(2,6-dioxo-piperidin-3-yl)-isoindole-1,3-dione] | 234 to 236
COc1cccc(COc2cccc3c2C(=O)N(C2CCC(=O)NC2=O)C3=O)c1 (stereo not drawn) [Example 12, 2-(2,6-Dioxo-piperidin-3-yl)-4-(3-methoxy-benzyloxy)-isoindole-1,3-dione] | 197 to 201
Cc1cccc(COc2cccc3c2C(=O)N(C2CCC(=O)NC2=O)C3=O)c1 (stereo not drawn) [Example 10, 2-(2,6-Dioxo-piperidin-3-yl)-4-(3-methyl-benzyloxy)-isoindole-1,3-dione] | 195 to 197
O=C1CCC(N2C(=O)c3cccc(OCc4ccc(Cl)s4)c3C2=O)C(=O)N1 (stereo not drawn) [Example 22] | 217 to 219
O=C1CCC(N2C(=O)c3cccc(OCc4cccc(Cl)c4)c3C2=O)C(=O)N1 (stereo not drawn) [Example 4, 4-(3-Chloro-benzyloxy)-2-(2,6-dioxo-piperidin-3-yl)-isoindole-1,3-dione] | 249 to 251
COc1ccc(COc2cccc3c2C(=O)N(C2CCC(=O)NC2=O)C3=O)cc1 (stereo not drawn) [Example 24, 2-(2,6-Dioxo-piperidin-3-yl)-4-(4-methoxy-benzyloxy)-isoindole-1,3-dione] | 178 to 180
O=C1CCC(N2C(=O)c3cccc(OCc4cc5c(F)cccc5s4)c3C2=O)C(=O)N1 (stereo not drawn) [Example 21, 2-(2,6-Dioxo-piperidin-3-yl)-4-(4-fluoro-benzo[b]thiophen-2-ylmethoxy)-isoindole-1,3-dione] | 264 to 266
O=C1CCC(N2C(=O)c3cccc(OCc4cccc(F)c4)c3C2=O)C(=O)N1 (stereo not drawn) [Example 8, 4-(3-Fluoro-benzyloxy)-2-(2,6-dioxo-piperidin-3-yl)-isoindole-1,3-dione] | 241 to 243
O=C1CCC(N2C(=O)c3cccc(OCc4ccc5ccccc5c4)c3C2=O)C(=O)N1 (stereo not drawn) [Example 14, 2-(2,6-Dioxo-piperidin-3-yl)-(naphthalene-2-ylmethoxy)-isoindole-1,3-dione] | > 260
O=C1CCC(N2C(=O)c3cccc(OCc4sc5ccccc5c4Cl)c3C2=O)C(=O)N1 (stereo not drawn) [Example 20, 4-(3-Chloro-benzo[b]thiophen-2-ylmethoxy)-2-(2,6-dioxo-piperidin-3-yl)-isoindole-1,3-dione] | 240 to 242
O=C1CCC(N2C(=O)c3cccc(OCc4ccc5ccccc5n4)c3C2=O)C(=O)N1 (stereo not drawn) [Example 16, 2-(2,6-Dioxo-piperidin-3-yl)-(quinolin-2-ylmethoxy)-isoindole-1,3-dione] | 254 to 256
O=C1CCC(N2C(=O)c3cccc(OCc4cc5ccccc5s4)c3C2=O)C(=O)N1 (stereo not drawn) [Example 18, 4-(Benzo[b]thiophen-2-ylmethoxy)-2-(2,6-dioxo-piperidin-3-yl)-isoindole-1,3-dione] | 247 to 249
O=C1CCC(N2C(=O)c3cccc(OCc4ccc5c(c4)OCO5)c3C2=O)C(=O)N1 (stereo not drawn) [Example 13, 4-(Benzo[1,3]dioxol-5-ylmethoxy)-2-(2,6-dioxo-piperidin-3-yl)-isoindole-1,3-dione] | 229 to 231
O=C1CCC(N2C(=O)c3cccc(OCc4cnc5ccccc5c4)c3C2=O)C(=O)N1 (stereo not drawn) [Example 15, 2-(2,6-Dioxo-piperidin-3-yl)-4-(quinolin-3-ylmethoxy)-isoindole-1,3-dione] | 263 to 265
O=C1CCC(N2C(=O)c3cccc(OCc4ccc(Cl)c(Cl)c4)c3C2=O)C(=O)N1 (stereo not drawn) [Example 6, 4-(3,4-Dichloro-benzyloxy)-2-(2,6-dioxo-piperidin-3-yl)-isoindole-1,3-dione] | 245 to 247
